Source: publication PMC7865522, “Analyzing Kinase Similarity in Small Molecule and Protein Structural Space to Explore the Limits of Multi-Target Screening” (Molecules, 2021)
“And” between values parts separate entries of the source, which are not always exact repeats. Equal values may be shown once.

Tests used:
EGFR-L858R = target: T1, EGFR-L858R (Homo sapiens, UniProt P00533, L858R); assay: HTRF KinEASE-TK IC50 determination (Rauh Lab); assay type: biochemical; conditions: ATP at Km (9 µM); read-out: IC50, EGFR L858R mutant
T1 construct: purchased Carna Biosciences lot13CBS-0537B
Description: (§1) IC 50 determinations for EGFR, its mutants and ErbB2-insYVMA (Carna Biosciences, lot13CBS-0005K for EGFR-wt; Carna, lot13CBS-0537B for EGFR-L858R; Carna, lot12CBS-0765B for EGFR-L858R/T790M; and ProQinase, lot1525-0000-1/003 for ErbB2-insYVMA) were performed with the HTRF KinEASE-TK assay from Cisbio according to the manufacturer’s instructions. Briefly, the amount of kinase in each reaction well was set to 0.60 ng EGFR-wt (0.67 nM), 0.10 ng EGFR-L858R (0.11 nM), 0.07 ng EGFR-T790M/L858R (0.08 nM), or 0.01 ng ErbB2-insYVMA (0.01 nM). An artificial substrate peptide (TK-substrate from Cisbio) was phosphorylated by EGFR or ErbB2. After completion of the reaction (reaction times: 25 min for EGFR-wt, 15 min for L858R, 20 min for L858R/T790M, and 40 min for ErbB2-insYVMA), the reaction was stopped by addition of buffer containing EDTA as well as an anti-phosphotyrosine antibody labeled with europium cryptate and streptavidin labeled with the fluorophore XL665. FRET between europium cryptate and XL665 was measured after an additional hour of incubation to quantify the phosphorylation of the substrate peptide. […] Kinase and inhibitor were preincubated for 30 min before the reaction was started by addition of ATP and substrate peptide. An EnVision multimode plate reader (Perkin Elmer) was used to measure the fluorescence of the samples at 620 nm (Eu ^3+ -labeled antibody) and 665 nm (XL665-labeled streptavidin) 50 µs after excitation at 320 nm. The quotient of both intensities for reactions made with eight different inhibitor concentrations was then analyzed using the Quattro Software Suite for IC 50 -determination. Each reaction was performed in duplicate, and at least three independent determinations of each IC 50 were made.

EGFR-L858R/T790M = target: T2, EGFR-L858R/T790M (Homo sapiens, UniProt P00533, L858R/T790M); assay: HTRF KinEASE-TK IC50 determination (Rauh Lab); assay type: biochemical; conditions: ATP at Km (4 µM); read-out: IC50, EGFR L858R/T790M double mutant
T2 construct: purchased Carna Biosciences lot12CBS-0765B
Description: as §1

EGFR-wt = target: T3, EGFR-wt (Homo sapiens, UniProt P00533); assay: HTRF KinEASE-TK IC50 determination (Rauh Lab); assay type: biochemical; conditions: ATP at Km (9.5 µM), racemate tested, read-out: IC50 ± s.d., EGFR
T3 construct: purchased Carna Biosciences lot13CBS-0005K
Description: as §1

ErbB2-insYVMA = target: T4, ErbB2-insYVMA (Homo sapiens, UniProt P04626, INS775YVMA); assay: HTRF KinEASE-TK IC50 determination (Rauh Lab); assay type: biochemical; conditions: ATP at Km (6 µM); racemate tested; read-out: IC50 ± s.d., ErbB2insYVMA
T4 construct: purchased ProQinase lot1525-0000-1/003
Description: as §1

PI3K = PI3K (Homo sapiens, UniProt P42336); assay: DiscoverX KINOMEscan competition binding assay; design: purchased DiscoverX (KINOMEscan service); host or cells: E. coli BL21-derived host (T7 phage) or HEK-293; conditions: compound 10 µM; lower values = higher affinity; below 35% = significant binding
Summary of the method: (§2)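 Kinase binding measured by competition of test compound (10 µM) with an immobilized biotinylated ligand on streptavidin beads, 1 h at room temperature. Kinases were T7 phage-tagged or HEK-293-expressed and DNA-tagged. Bound kinase was eluted and quantified by qPCR; values are % of control, lower meaning stronger binding.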

BRAF = target: T5, BRAF (Homo sapiens, UniProt P15056); assay: DiscoverX KINOMEscan competition binding assay; conditions: 10 µM; Table 3; read-out: % ctrl. activity at 10 µM, BRAF (DiscoverX), printed as symbol
T5 construct: purchased DiscoverX (KINOMEscan service); host or cells: E. coli BL21-derived host (T7 phage) or HEK-293
Summary of the method: as §2

ErbB2 = target: T6, ErbB2 (Homo sapiens, UniProt P04626); assay: DiscoverX KINOMEscan competition binding assay; conditions: compound 10 µM; lower values = higher affinity; below 35% = significant binding
T6 construct: purchased DiscoverX (KINOMEscan service); host or cells: E. coli BL21-derived host (T7 phage) or HEK-293
Summary of the method: as §2

EGFR = target: T7, EGFR (Homo sapiens, UniProt P00533); assay: DiscoverX KINOMEscan competition binding assay; conditions: compound 10 µM; lower values = higher affinity; below 35% = significant binding
T7 construct: purchased DiscoverX (KINOMEscan service); host or cells: E. coli BL21-derived host (T7 phage) or HEK-293
Summary of the method: as §2

VEGFR2 = target: T8, VEGFR2 (Homo sapiens, UniProt P35968); assay: DiscoverX KINOMEscan competition binding assay; conditions: compound 10 µM; lower values = higher affinity; below 35% = significant binding
T8 construct: purchased DiscoverX (KINOMEscan service); host or cells: E. coli BL21-derived host (T7 phage) or HEK-293
Summary of the method: as §2

T4 sequence (P04626 with tags, fused parts or gaps INS775YVMA limits assumed): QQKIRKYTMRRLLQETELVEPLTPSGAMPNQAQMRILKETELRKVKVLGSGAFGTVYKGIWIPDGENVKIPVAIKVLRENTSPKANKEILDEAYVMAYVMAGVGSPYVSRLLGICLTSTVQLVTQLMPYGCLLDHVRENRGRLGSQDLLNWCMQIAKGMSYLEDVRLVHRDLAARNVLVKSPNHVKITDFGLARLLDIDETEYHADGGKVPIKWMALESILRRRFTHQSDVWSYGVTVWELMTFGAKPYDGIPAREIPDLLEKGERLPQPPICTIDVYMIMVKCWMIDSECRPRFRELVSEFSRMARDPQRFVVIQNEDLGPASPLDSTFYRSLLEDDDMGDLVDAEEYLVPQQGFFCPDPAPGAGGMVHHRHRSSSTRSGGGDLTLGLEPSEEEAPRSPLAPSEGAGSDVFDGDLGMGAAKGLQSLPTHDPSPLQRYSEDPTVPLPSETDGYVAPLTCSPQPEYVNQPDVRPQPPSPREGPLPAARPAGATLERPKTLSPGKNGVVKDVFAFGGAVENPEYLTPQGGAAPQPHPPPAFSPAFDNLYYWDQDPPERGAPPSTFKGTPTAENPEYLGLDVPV
T6 sequence (P04626 23-1255): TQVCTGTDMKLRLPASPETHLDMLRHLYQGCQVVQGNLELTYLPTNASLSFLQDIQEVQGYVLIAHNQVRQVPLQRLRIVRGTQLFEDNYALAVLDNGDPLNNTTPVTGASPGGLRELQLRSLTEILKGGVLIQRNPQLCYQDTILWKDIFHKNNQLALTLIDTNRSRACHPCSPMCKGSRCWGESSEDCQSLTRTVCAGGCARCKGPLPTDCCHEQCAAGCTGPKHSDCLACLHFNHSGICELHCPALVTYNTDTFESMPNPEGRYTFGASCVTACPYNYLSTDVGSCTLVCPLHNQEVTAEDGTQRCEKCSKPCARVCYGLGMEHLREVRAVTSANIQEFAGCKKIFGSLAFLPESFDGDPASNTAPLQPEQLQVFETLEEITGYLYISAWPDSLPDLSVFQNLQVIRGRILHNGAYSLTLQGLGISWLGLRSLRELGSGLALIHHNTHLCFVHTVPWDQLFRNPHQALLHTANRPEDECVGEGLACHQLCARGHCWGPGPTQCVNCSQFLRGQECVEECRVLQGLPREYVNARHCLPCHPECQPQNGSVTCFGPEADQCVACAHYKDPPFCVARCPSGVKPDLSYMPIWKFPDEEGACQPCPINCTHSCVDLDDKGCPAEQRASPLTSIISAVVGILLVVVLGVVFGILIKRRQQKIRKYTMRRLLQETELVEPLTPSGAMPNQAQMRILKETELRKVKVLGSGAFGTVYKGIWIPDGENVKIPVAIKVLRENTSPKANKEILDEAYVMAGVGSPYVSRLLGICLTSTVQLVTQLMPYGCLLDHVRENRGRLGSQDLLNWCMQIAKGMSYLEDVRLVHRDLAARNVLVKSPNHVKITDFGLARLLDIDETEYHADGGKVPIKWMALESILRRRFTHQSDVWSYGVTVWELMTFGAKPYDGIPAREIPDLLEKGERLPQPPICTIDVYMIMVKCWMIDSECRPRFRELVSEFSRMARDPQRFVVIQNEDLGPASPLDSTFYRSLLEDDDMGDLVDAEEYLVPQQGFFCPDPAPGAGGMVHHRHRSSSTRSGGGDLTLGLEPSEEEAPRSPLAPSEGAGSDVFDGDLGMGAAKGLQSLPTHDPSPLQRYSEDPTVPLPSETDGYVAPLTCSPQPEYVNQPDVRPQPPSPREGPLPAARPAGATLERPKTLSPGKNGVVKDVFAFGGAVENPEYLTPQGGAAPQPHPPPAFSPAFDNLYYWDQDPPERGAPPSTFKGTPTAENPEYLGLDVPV
T1 sequence (P00533 25-1210 L858R): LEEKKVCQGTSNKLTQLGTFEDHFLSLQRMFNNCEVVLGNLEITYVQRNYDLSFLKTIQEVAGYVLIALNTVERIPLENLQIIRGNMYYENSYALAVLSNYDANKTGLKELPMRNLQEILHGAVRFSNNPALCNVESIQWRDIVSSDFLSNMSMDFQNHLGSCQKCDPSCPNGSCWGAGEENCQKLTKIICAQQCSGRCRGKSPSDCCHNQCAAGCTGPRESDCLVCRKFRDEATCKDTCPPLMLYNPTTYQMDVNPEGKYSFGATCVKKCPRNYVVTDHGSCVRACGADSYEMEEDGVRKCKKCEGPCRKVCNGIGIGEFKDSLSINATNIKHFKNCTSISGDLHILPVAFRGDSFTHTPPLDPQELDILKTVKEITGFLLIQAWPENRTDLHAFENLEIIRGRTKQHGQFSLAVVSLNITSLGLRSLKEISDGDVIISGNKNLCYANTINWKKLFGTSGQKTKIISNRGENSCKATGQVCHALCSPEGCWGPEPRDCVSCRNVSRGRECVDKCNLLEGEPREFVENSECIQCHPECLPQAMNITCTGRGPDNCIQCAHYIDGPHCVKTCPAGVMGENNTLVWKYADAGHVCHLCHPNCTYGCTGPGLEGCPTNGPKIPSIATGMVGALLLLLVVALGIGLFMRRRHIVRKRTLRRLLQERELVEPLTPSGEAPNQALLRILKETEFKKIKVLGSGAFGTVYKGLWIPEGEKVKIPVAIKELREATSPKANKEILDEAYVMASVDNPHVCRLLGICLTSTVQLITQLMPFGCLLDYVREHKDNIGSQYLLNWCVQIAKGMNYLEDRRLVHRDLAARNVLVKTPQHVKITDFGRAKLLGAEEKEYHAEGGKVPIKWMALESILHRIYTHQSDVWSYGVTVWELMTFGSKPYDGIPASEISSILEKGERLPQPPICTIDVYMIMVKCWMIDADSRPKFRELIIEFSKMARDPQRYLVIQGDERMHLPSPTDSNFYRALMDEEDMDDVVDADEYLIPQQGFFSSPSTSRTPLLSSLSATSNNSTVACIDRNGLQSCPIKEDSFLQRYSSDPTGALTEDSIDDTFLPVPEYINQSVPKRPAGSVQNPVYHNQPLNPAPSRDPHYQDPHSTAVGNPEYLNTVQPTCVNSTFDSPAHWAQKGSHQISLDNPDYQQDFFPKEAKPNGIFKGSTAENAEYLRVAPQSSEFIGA
T8 sequence (P35968 20-1356): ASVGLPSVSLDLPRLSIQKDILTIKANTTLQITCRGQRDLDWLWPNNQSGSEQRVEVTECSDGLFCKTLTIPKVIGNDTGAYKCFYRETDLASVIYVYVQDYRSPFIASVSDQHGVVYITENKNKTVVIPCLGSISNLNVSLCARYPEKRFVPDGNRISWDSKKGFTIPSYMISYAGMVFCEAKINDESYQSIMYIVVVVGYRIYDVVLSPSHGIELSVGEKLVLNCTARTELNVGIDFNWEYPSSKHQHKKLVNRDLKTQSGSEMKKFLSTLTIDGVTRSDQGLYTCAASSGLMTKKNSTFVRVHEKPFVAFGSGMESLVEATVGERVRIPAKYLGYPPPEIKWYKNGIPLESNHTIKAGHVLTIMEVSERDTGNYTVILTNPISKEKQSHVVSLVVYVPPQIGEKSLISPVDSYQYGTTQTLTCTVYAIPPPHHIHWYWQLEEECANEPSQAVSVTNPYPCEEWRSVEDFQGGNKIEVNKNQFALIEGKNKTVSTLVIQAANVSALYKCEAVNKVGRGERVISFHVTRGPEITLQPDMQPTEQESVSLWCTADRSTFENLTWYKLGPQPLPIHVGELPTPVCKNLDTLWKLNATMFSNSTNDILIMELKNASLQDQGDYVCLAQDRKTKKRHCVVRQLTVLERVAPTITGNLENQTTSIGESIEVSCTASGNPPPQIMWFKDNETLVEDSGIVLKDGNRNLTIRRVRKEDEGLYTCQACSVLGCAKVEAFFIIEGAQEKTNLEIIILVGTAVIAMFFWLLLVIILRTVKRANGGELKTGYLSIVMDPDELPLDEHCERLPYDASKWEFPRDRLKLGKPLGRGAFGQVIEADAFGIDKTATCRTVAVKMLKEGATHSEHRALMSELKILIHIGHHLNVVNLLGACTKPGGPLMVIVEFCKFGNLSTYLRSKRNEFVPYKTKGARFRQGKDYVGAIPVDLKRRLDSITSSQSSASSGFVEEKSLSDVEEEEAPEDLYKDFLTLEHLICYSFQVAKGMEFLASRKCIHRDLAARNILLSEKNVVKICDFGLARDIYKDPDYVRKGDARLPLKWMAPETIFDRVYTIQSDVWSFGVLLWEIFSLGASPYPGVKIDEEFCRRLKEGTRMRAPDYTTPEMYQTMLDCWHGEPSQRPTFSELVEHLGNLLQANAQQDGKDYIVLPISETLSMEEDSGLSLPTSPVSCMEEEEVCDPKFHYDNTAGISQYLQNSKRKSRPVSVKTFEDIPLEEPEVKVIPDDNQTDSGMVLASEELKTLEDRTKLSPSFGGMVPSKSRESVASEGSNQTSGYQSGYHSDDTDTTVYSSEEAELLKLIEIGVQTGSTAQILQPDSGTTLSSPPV
T5 sequence (P15056 whole entry): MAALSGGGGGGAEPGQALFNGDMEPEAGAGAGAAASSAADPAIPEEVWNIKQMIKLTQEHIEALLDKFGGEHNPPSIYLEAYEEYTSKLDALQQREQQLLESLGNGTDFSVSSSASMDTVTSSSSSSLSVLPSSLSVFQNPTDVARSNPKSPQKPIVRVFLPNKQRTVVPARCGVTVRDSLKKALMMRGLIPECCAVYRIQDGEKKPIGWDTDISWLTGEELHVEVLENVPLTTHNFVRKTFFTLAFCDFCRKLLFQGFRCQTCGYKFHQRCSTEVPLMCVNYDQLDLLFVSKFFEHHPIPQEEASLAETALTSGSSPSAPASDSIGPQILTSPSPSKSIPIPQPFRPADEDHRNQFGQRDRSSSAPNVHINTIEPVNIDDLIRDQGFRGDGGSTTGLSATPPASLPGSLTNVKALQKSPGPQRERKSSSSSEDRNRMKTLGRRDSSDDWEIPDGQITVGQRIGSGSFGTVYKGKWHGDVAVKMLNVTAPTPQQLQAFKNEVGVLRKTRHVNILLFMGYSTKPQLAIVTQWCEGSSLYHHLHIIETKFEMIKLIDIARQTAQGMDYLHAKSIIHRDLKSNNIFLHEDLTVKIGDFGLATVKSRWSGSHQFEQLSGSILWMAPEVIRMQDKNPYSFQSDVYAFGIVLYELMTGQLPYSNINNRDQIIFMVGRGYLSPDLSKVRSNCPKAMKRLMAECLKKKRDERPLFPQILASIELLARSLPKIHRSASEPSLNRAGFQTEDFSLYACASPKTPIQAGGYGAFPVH

COC(=O)Cc1ccc(Oc2ncnc3sc4c(c23)CC[C@@H](C)C4)cc1 (racemic) [DS39984]
IC50 (EGFR-L858R): 2350 ± 397 nM | IC50 (EGFR-L858R/T790M): > 10000 nM | IC50 (EGFR-wt): 324 ± 50 nM | IC50 (ErbB2-insYVMA): < 324 nM and 220 nM | % control, PI3K (DiscoverX) (PI3K): 100 % control | remaining binding at 10 µM (BRAF): ≥ 99% | % control, ErbB2 (DiscoverX) (ErbB2): 21 % control | % control, EGFR (DiscoverX) (EGFR): 17 % control | % control, VEGFR2 (DiscoverX) (VEGFR2): 99 % control
